According to patent publication US12268739B2, “Use of toll-like receptor 2 (TLR-2) agonist for modulating human immune response” (Children's Medical Center Corporation, priority 2018, dated 2025):

What was measured:
THP1-NF-κB cells = experiment: THP1-NF-κB cell stimulation for 24 hours, secreted luciferase luminescence; assay type: cell-based, human
Experimental: THP-1 Cell Line and Culture Conditions. The THP1-Lucia™ cell line was obtained from Invivogen (San Diego, CA). THP1-Lucia cells, which are human monocytic cells derived from the blood of a child with leukemia, contain an NF-kB-inducible Luc reporter construct. This allows NF-kB activation to be measured by quantifying the luminescence from the secreted luciferase enzyme. THP1-Lucia cells were cultured in RPMI 1640 supplemented with 10% non-heat inactivated fetal bovine serum (FBS), 10 mM HEPES, 1.0 mM sodium pyruvate, 50 ug/ml Pen-Strep, and 100 ug/mL Normocin™. Once cultured, the cells were stored in a 37° C. incubator with 5% CO2 and a humidified atmosphere. Cells were passaged every 2-3 days and not allowed to exceed a concentration of 2.0×10^6 cells/ml media.
PBMCs were isolated from blood using a Ficoll density gradient. PBMCs either used fresh or were stored at 5×10^7 cells per vial in 1 mL RPMI containing 20% autologous plasma and 10% DMSO at −80° C. until use. Stimulation plates were prepared by transferring 0.66 μl of DMSO-dissolved compounds (30 or 7.5 mM) to each well of a round bottom 96-well plate. PBMCs isolated from human adult donors or THP1-NF-κB cells were resuspended at a concentration of 10^5 cells/200 μl of RPMI supplemented with 10% of platelet-poor plasma or THP1 culture medium, respectively. 200 μl of the cell suspension were transferred to each well resulting in a final compound concentration of 100 or 25 μM. After 24 hours of incubation (37° C., 5% CO2), plates were spun down (500×g, room temperature, 5 minutes) and supernatants were harvested for further analysis.

human TLR2 = biological target: T1, human TLR2 (Homo sapiens, UniProt O60603); experiment: HEK293 assay for human TLR2 selectivity (NF-κB/SEAP); assay type: cell-based; details: 18-24 hours stimulation, titratable
T1 construct: expressed in transfected cells; host or cells: HEK-Blue (human embryonic kidney) cells with an NF-kB-inducible SEAP reporter
Experimental: (§1) HEK293 assay for human TLR2 and TLR8 selectivity: Human embryonic kidney (HEK) 293 cells expressing human TLR2 or TLR8 with an NF-κB-responsive secreted embryonic alkaline phosphatase (SEAP) reporter gene were obtained from Invivogen (San Diego, CA). Cells were maintained in RPMI or DMEM with 10% heat inactivated-FBS and selection antibiotics per the manufacturer's instructions. Cells were plated at 5×10^5 cells/96-well and stimulated with indicated agonist(s) for 24 hours. Supernatants were harvested and analyzed for NF-κB/SEAP activation using the QuantiBlue kit (Invivogen). Values are expressed as fold change in OD650 over vehicle-only treated samples.

human TLR8 = biological target: T2, human TLR8 (Homo sapiens, UniProt Q9NR97); experiment: HEK293 assay for human TLR8 selectivity (NF-κB/SEAP); assay type: cell-based; details: selectivity counter-assay
T2 construct: host or cells: HEK293 cells with an NF-kB-responsive SEAP reporter gene
T2 sequence (Q9NR97 27-1041): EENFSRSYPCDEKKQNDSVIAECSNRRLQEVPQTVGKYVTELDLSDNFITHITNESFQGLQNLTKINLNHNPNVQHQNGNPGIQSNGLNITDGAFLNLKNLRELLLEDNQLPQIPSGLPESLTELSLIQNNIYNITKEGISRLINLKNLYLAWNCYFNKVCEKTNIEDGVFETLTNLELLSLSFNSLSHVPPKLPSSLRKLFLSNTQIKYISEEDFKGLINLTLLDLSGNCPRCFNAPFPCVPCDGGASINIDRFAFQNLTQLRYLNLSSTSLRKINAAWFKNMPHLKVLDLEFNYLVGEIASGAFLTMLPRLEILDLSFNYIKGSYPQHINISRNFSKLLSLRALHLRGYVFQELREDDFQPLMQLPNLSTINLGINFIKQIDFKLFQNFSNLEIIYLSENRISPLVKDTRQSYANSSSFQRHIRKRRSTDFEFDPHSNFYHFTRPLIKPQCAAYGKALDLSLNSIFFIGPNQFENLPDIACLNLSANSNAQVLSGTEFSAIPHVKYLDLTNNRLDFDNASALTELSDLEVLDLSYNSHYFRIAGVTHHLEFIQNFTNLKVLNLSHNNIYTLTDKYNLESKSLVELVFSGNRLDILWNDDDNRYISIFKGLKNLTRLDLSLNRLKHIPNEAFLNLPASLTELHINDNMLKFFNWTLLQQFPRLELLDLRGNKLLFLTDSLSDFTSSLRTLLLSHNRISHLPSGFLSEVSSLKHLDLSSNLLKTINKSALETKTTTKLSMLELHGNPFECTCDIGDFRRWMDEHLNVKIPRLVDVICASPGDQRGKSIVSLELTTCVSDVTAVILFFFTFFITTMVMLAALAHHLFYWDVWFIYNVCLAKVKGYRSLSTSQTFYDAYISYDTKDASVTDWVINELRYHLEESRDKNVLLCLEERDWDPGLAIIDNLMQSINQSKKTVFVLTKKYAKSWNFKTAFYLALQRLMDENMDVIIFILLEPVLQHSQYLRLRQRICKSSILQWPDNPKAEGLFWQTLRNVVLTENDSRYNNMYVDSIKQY
Experimental: as §1

T1 sequence (O60603 21-784): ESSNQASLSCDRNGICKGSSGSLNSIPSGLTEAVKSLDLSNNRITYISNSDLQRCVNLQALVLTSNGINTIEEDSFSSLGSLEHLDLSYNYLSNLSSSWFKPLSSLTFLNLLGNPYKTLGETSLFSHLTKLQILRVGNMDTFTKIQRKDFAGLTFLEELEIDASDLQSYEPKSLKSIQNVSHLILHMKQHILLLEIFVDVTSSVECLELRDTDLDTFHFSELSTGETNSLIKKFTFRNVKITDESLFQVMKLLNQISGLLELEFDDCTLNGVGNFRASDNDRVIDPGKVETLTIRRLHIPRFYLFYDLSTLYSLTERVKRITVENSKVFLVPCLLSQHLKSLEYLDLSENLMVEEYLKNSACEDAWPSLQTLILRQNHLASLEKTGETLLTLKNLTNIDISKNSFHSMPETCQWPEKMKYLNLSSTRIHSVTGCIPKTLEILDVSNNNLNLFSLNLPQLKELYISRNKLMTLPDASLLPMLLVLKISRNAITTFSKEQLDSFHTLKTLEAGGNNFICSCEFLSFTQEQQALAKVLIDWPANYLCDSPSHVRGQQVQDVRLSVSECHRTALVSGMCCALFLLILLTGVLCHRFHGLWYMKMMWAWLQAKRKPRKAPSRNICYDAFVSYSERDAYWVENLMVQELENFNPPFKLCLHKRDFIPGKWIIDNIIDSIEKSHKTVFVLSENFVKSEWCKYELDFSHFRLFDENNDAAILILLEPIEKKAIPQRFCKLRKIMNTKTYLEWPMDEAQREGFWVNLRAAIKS

## CNC(=O)c1c(NC(=O)c2ccc(S(=O)(=O)N(C)C)cc2)sc2c1CCC2 [Compound 80]
THP1-NF-κB cells; 384 and 96 well assay
  Activation of THP1 cells: induced activation of THP1 cells
THP1-NF-κB cells; NF-κB-dependent luminescence, compound at 25 uM, 24 hours
  THP1 cells (relative luminescence units, N = 4) Comp at 25 uM: 8280 relative luminescence units
THP1-NF-κB cells; NF-κB-dependent luminescence, compound at 100 uM, 24 hours
  THP1 cells (relative luminescence units, N = 4) Comp at 100 uM: 12174 relative luminescence units
Human TLR2
  TLR2 activation in HEK TLR2 cells (SEAP): induced TLR2 specific activation
Human TLR8
  TLR8 induction in HEK TLR8 cells (SEAP): without induction of TLR8
